US11298343B2, “Method for treating thalassemia” (ST. JUDE CHILDREN'S RESEARCH HOSPITAL, priority 2017, dated 2022)
Residues, ends and D or L forms follow the SMILES beside them. *: point of attachment. Cbz = O=C(OCc1ccccc1)*

Columns and labels:
[1] = test system: β-thalassemic erythroblasts; assay: Cell survival of treated erythroblasts derived from β-thalassemia patient CD34+ cells; settings: added day 13, 48 hours
Description: Erythroid differentiation and maturation were monitored by flow cytometry with an LSR/Fortessa cell analyzer (BD Biosciences), using the following antibodies: anti-CD235a (BD Biosciences), anti-Band3, and anti-α4-integrin (Miltenyi).

[2] = test system: free α-globin in β-thalassemic erythroblasts; assay: Free α-globin by HPLC in erythroblasts derived from β-thalassemia patient CD34+ cells; type: cell-based, human; settings: for reduction of free α-globin: rapamycin 10 μM or 20 μM added day 13, HPLC two days later
Description: Cells were lysed in Hemolysate reagent (Helena Laboratories, Beaumont, Tex.) and centrifuged. Analysis of globin chains in the supernatant was performed by ion exchange (IE) and reverse phase (RP)-HPLC (Prominence UFLC, Shimadzu). Proteins eluting from the column were quantified by light absorbance at 220, 280, and 415 nm with a diode array detector. The relative amount of free α-globin was calculated from the area of the peak for each condition at 415 nm and normalized based on the DMSO control. The percentage was calculated as follows: % α-globin=[α-chain/ρ-chain (β+γ+δ)×100].

[3] = test system: Hbb^Th3/+ reticulocytes; assay: Reticulocyte pulse-chase analysis of insoluble α-globin turnover with inhibitors; type: cell-based, mice; settings: 6 hours chase, 10 μM MG132, 100 μM chloroquine or 0.2 μM bafilomycin A1
Description: Briefly, reticulocytes were pulse-labeled with ^35S-cysteine and ^35S-methionine for 30 minutes then chased with unlabeled amino acids±proteasome inhibitor (10 μM MG132) and/or lysosome inhibitor (100 μM chloroquine or 0.2 μM bafilomycin A1). Insoluble α-globin was isolated by TAU gel electrophoresis, analyzed by autoradiography, and quantified using AlphaView SA 3.4.0 (ProteinSimple).
To investigate how the depletion of ULK1 or ATG5 affects the turnover of insoluble α-globin in β-thalassemia, mutant reticulocytes were pulse-labeled with ^35S-labeled amino acids, chased for various times with unlabeled amino acids with or without various inhibitors, and the soluble and insoluble nascent radiolabeled α-globin in cell lysates was quantified.

[4] = test system: Hbb^Th3/+ mice; settings: systemic administration (Khandros 2012); cited from earlier work
[5] = test system: β-thalassemic and control mice; assay: Hematologic analysis of mice treated with rapamycin for 30 days; type: in vivo
Description: Mice were analyzed at 1-6 months of age. Blood was collected by submandibular bleeding, anticoagulated with EDTA, and analyzed on a FORCYTE Veterinary Hematology Analyzer.
(§1) Tissue samples were submitted for pathology analysis.

[6] = test system: β-thalassemic and control mice; assay: Pathology grading of erythropoiesis (bone marrow, spleen, liver) in rapamycin-treated mice; type: in vivo; settings: rapamycin 30 days; for Bone marrow erythropoiesis grade / Liver erythropoiesis grade / Spleen erythropoiesis grade: grade scale 0-5; for Final grade (sum of the grades of the three tissues): scale 0-15
Description: Bright-field images of hematoxylin and eosin-stained tissues were acquired with a Nikon Eclipse Ni microscope. Morphologic phenotyping of all cohorts was carried out in a blinded manner by a board-certified veterinary pathologist. A semi-quantitative grading method was used to highlight visual differences in the erythropoiesis in each cohort. The bone marrow, spleen, and liver were first analyzed separately using the following grading scale: grade 0: within normal limits; grade 1: minimal; grade 2: mild; grade 3: moderate; grade 4: marked; grade 5: severe. A total grade for erythropoiesis (final grade) was calculated based on the sum of the grades for each of the three tissues. […] No mouse received a grade consistent with a severe increase in erythropoiesis.
as §1

[7] = test system: insoluble α-globin; assay: Detection of insoluble α-globin precipitates (TAU gel) in erythroid cells of treated mice; type: in vivo; settings: FIG. 2
Description: Briefly, 20 μL of washed RBCs (normalized based on the hematocrit percentage) were lysed and centrifuged at 16,000×g at 4° C. for 30 minutes. The pellets were washed extensively in ice-cold 0.05×PBS. Membrane lipids were extracted with 56 mM sodium borate, pH 8.0, containing 0.1% TWEEN-20, at 4° C. Precipitated globins were dissolved in 8M urea, 10% acetic acid, 10% β-mercaptoethanol, and 0.04% pyronin, fractionated by TRITON-acetic acid-urea (TAU) gel electrophoresis, and stained with COOMASSIE brilliant blue. Soluble hemoglobin fractions were analyzed and quantified as loading controls by using AlphaView SA 3.4.0 (ProteinSimple).
as §1
(§2) Insoluble α-globin in reticulocytes from rapamycin-treated Hbb^Th3/+ mice was decreased by approximately 50% (FIG. 2).

[8] = test system: electron-dense α-globin inclusions in reticulocytes; assay: Transmission electron microscopy of electron-dense aggregates in reticulocytes of treated mice; type: in vivo; settings: β-thalassemic mice treated with rapamycin vs vehicle-treated controls; P<0.0001
Description: Samples were fixed in 2.5% glutaraldehyde in 0.1M sodium cacodylate buffer, pH 7.4, and embedded in 2% low-gelling-temperature agarose. The samples were post-fixed in 2% osmium tetroxide in 0.1M cacodylate buffer with 0.3% potassium ferrocyanide for 1.5 hours, dehydrated through a graded series of ethanol/propylene oxide solutions, then infiltrated with and embedded in epoxy resin, which was polymerized at 70° C. overnight. Semi-thin (0.5 μm) sections were stained with toluidine blue for light microscope examination. Ultra-thin (80 nm) sections were cut and imaged using an FEI Tecnai 200 Kv FEG Transmission Electron Microscope with an ATM XR41 digital camera.
Areas of electron-dense α-globin inclusions in reticulocytes were quantified by automated image analysis of electron micrographs. TEM images were analyzed with the FIJI software program and the Trainable Weka Segmentation plugin to produce pixel-based segmentations in order to quantify differences in the numbers and areas of intracytoplasmic hemoglobin precipitates in thalassemic and non-thalassemic samples (Schindelin, et al. (2012) Nat. Meth. 9:676-682; Arganda-Carreras, et al. (2017) Bioinformatics 33:2424-2426).
as §1, §2

[9] = Hbb^+/+ Ulk1^+/+ mice, rapamycin 4 mg/kg i.p. daily 30 days, mean ± SD
[10] = Hbb^Th3/+ Ulk1^+/+ mice, rapamycin 4 mg/kg i.p. daily 30 days, mean ± SD
[11] = Hbb^Th3/+ Ulk1^−/− mice, rapamycin 4 mg/kg i.p. daily 30 days, mean ± SD
[12] = β-thalassemic mice, rapamycin 4 mg/kg i.p. daily 30 days vs vehicle, P<0.001

With `CC(C)C[C@@H](C=O)NC(=O)[C@H](CC(C)C)NC(=O)[C@H](CC(C)C)NC(=O)OCc1ccccc1` [MG132] (Cbz-Leu-Leu-Leu-aldehyde) as the compound, how does the “effect on cell survival” value [1] read?
The value was “induced cell death”.

And the “free α-globin levels” value ([2]; β-thalassemic erythroblasts, MG132 1 μM or 2.5 μM added day 13, HPLC two days later)?
The value was “raised free α-globin levels”.

And the “sensitivity of clearance of labeled insoluble α-globin to the inhibitor” value [3]?
The value was “sensitive”.

With `CO/C1=C\C(C)=C\[C@@H](C)[C@@H](O)[C@@H](C)C/C(C)=C/C=C/[C@H](OC)[C@@H]([C@@H](C)[C@@H](O)[C@H](C)[C@@]2(O)C[C@@H](O)[C@H](C)[C@@H](C(C)C)O2)OC1=O` [bafilomycin A1] as the compound, how does the “sensitivity of clearance of labeled insoluble α-globin to the inhibitor” value [3] read?
The value was “sensitive”.

For `CC(C)C[C@H](NC(=O)[C@H](Cc1ccccc1)NC(=O)c1cnccn1)B(O)O` [bortezomib], which “induction of autophagy and heat-shock proteins” value [4] is on record?
Its value is “induced both autophagy and heat-shock proteins”.

What about the “insoluble α-globin” value [4] of the same compound?
The value was “no net increase in insoluble α-globin”.

For `CO[C@H]1C[C@@H]2CC[C@@H](C)[C@@](O)(O2)C(=O)C(=O)N2CCCC[C@H]2C(=O)O[C@H]([C@H](C)C[C@@H]2CC[C@@H](O)[C@H](OC)C2)CC(=O)[C@H](C)/C=C(\C)[C@@H](O)[C@@H](OC)C(=O)[C@H](C)C[C@H](C)/C=C/C=C/C=C/1C` [rapamycin], which “effect on cell survival” value [1] is on record?
The value was “no deleterious effect on cell survival”.

What about the Hb [5, 9] of the same compound?
The Hb was 13.78 ± 1.99^ns g/dL.

And the Hct [5, 9]?
Its Hct is 40.98 ± 5.75^ns %.

And the MCH [5, 9]?
Its MCH is 14.53 ± 0.53^ns pg.

What about the MCHC [5, 9] of the same compound?
Its MCHC is 33.66 ± 0.76^ns g/dL.

What about the MCV [5, 9] of the same compound?
The MCV was 42.89 ± 1.61^ns fL.

And the RDW [5, 9]?
The RDW was 14.40 ± 0.91^ns %.

And the Reticulocytes [5, 9]?
The Reticulocytes was 2.90 ± 1.21^ns %.

And the Hb [5, 10]?
The Hb was 10.33 ± 1.07 g/dL.

And the Hct [5, 10]?
Its Hct is 29.42 ± 3.59 %.

And the MCH [5, 10]?
The MCH was 11.56 ± 1.21 pg.

And the MCHC [5, 10]?
Its MCHC is 35.54 ± 1.01 g/dL.

And the MCV [5, 10]?
The MCV was 32.67 ± 3.02 fL.

And the RDW [5, 10]?
The RDW was 31.05 ± 5.23 %.

What about the Reticulocytes [5, 10] of the same compound?
Its Reticulocytes is 13.06 ± 6.67 %.

And the Hct [5, 11]?
Its Hct is 25.42 ± 4.59^ns %.

What about the MCH [5, 11] of the same compound?
Its MCH is 15.08 ± 1.31^ns pg.

What about the MCHC [5, 11] of the same compound?
Its MCHC is 34.99 ± 2.14^ns g/dL.

What about the MCV [5, 11] of the same compound?
Its MCV is 43.03 ± 1.62 fL.

And the RBC [5, 11]?
Its RBC is 5.81 ± 0.99^ns ×10^6/μL.

And the RDW [5, 11]?
The RDW was 39.73 ± 0.66^ns %.

What about the Reticulocytes [5, 11] of the same compound?
Its Reticulocytes is 34.35 ± 2.78^ns %.

And the “effect on RBC indices or erythropoiesis” value ([5]; wild-type or Hbb^Th3/+Ulk1^−/− mice)?
The value was “no effect”.

And the “decrease in reticulocyte count” value [5, 12]?
Its value is 44%.

What about the “increase in RBC count” value [5, 12] of the same compound?
The value was 27%.

And the “increase in Hb” value ([5]; β-thalassemic mice, rapamycin 4 mg/kg i.p. daily 30 days vs vehicle, P<0.05)?
Its value is 10%.

And the “Bone marrow erythropoiesis grade” value ([6]; Hbb^+/+ Ulk1^+/+ mice)?
Its value is 0.00 ± 0.00^ns.

And the Liver erythropoiesis grade ([6]; Hbb^+/+ Ulk1^+/+ mice)?
Its Liver erythropoiesis grade is 0.44 ± 0.53^ns.

And the Spleen erythropoiesis grade ([6]; Hbb^+/+ Ulk1^+/+ mice)?
Its Spleen erythropoiesis grade is 0.00 ± 0.00^ns.

What about the “Final grade (sum of the grades of the three tissues)” value (shortened to “Final grade”) ([6]; Hbb^+/+ Ulk1^+/+ mice) of the same compound?
Its value is 0.44 ± 0.53^ns.

And the “Bone marrow erythropoiesis grade” value ([6]; Hbb^Th3/+ Ulk1^+/+ mice)?
Its value is 1.75 ± 1.67^ns.

What about the Liver erythropoiesis grade ([6]; Hbb^Th3/+ Ulk1^+/+ mice) of the same compound?
The Liver erythropoiesis grade was 0.87 ± 0.35^ns.

What about the Spleen erythropoiesis grade ([6]; Hbb^Th3/+ Ulk1^+/+ mice) of the same compound?
The Spleen erythropoiesis grade was 2.37 ± 0.52.

And the “Final grade” value ([6]; Hbb^Th3/+ Ulk1^+/+ mice)?
The value was 5.00 ± 1.85.

And the “Bone marrow erythropoiesis grade” value ([6]; Hbb^Th3/+ Ulk1^−/− mice)?
Its value is 3.30 ± 0.48^ns.

What about the Liver erythropoiesis grade ([6]; Hbb^Th3/+ Ulk1^−/− mice) of the same compound?
Its Liver erythropoiesis grade is 1.10 ± 0.31.

What about the Spleen erythropoiesis grade ([6]; Hbb^Th3/+ Ulk1^−/− mice) of the same compound?
Its Spleen erythropoiesis grade is 3.20 ± 0.79^ns.

What about the “Final grade” value ([6]; Hbb^Th3/+ Ulk1^−/− mice) of the same compound?
Its value is 7.60 ± 1.07^ns.

What about the “effect on the accumulation of insoluble α-globin” value ([7]; Hbb^Th3/+Ulk1^−/− mice) of the same compound?
The value was “no effect”.

And the “decrease of insoluble α-globin in reticulocytes” value ([7]; rapamycin-treated Hbb^Th3/+ mice)?
Its value is “approximately 50%”.

And the “reduction of free α-globin” value ([2]; NTD β-thalassemic erythroblasts, P<0.001)?
The value was 85%.

What about the “reduction of free α-globin” value ([2]; TD β-thalassemia erythroblasts, P<0.0001) of the same compound?
Its value is 40%.

And the “reduction in electron-dense aggregates in reticulocytes (TEM)” value [8]?
The value was “approximately 60%”.
